Measurements reported in US20240109930A1, “TRIAZOLYL-METHYL SUBSTITUTED ALPHA-D-GALACTOPYRANOSIDE DERIVATIVES” (Idorsia Pharmaceuticals Ltd, priority 2021, published 2024).

What was measured:
human Gal-1 (hGal-1) = human Gal-1 (hGal-1) (Homo sapiens, UniProt P09382, C131S/C17S/C43S/C61S/C89S); test: Competitive binding assay: biotinylated hGal-1 binding to microplate-adsorbed asialofetuin (ASF); conditions: IC50 values from several measurements given as geomean
Summary of the method: (§1)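 Biotinylated hGal-3 or hGal-1 (preferably cysteine-free Cys→Ser mutant), 300–1000 ng/mL, competes with compound for ASF-coated wells for 3 h at 4 °C. Bound lectin detected with streptavidin-peroxidase (80 ng/mL, 1 h, 4 °C) and ABTS by absorbance; IC50 reported as geomean of several runs.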

human Gal-3 (hGal-3) = human Gal-3 (hGal-3) (Homo sapiens (Human), UniProt P17931); test: Competitive binding assay: biotinylated hGal-3 binding to microplate-adsorbed asialofetuin (ASF); conditions: IC50 values from several measurements given as geomean
human Gal-3 (hGal-3), sequence (P17931 whole entry): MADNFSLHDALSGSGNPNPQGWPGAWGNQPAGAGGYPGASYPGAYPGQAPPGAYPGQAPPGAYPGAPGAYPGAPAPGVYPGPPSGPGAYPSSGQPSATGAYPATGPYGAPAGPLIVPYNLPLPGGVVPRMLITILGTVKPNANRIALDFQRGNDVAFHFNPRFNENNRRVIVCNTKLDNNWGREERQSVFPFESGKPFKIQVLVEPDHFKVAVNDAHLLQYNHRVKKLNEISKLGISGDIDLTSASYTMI
Summary of the method: as §1

SMILES | IC50 (human Gal-1 (hGal-1)) [nM] | IC50 (human Gal-3 (hGal-3)) [nM]
CO[C@@H]1[C@@H](n2cc(-c3ccc(F)c(F)c3F)nn2)[C@@H](O)[C@@H](CO)O[C@@H]1Cn1cc(C2(CO)CC2)nn1 [Ex 3.2.4.] | 650 | 100
CO[C@@H]1[C@@H](n2cc(-c3ccc(Cl)c(F)c3F)nn2)[C@@H](O)[C@@H](CO)O[C@@H]1Cc1cn(C2(C(F)F)CC2)nn1 [Ex 2.1.51., (2R,3R,4S,5R,6R)-4-(4-(4-chloro-2,3-difluorophenyl)-1H-1,2,3-triazol-1-yl)-6-((1-(1-(difluoromethyl)cyclopropyl)-1H-1,2,3-triazol-4-yl)methyl)-2-(hydroxymethyl)-5-methoxytetrahydro-2H-pyran-3-ol] | 830 | 20
CO[C@@H]1[C@@H](n2cc(-c3ccc(Cl)c(F)c3F)nn2)[C@@H](O)[C@@H](CO)O[C@@H]1Cc1cn(C2(C(F)F)CCOC2)nn1 (single isomer, unassigned) [Example 2.1.78.A] | 360 | 40
CO[C@@H]1[C@@H](n2cc(-c3ccc(Br)c(F)c3F)nn2)[C@@H](O)[C@@H](CO)O[C@@H]1Cn1cc(C2(CO)CC2)nn1 [Ex 4.2.4.] | 4640 | 70
CO[C@@H]1[C@@H](n2cc(-c3ccc(Cl)c(F)c3F)nn2)[C@@H](O)[C@@H](CO)O[C@@H]1Cc1cn(C(C)(C)C(F)F)nn1 [Ex 2.1.28.] | 780 | 40
CO[C@@H]1[C@@H](n2cc(-c3ccc(Br)c(F)c3F)nn2)[C@@H](O)[C@@H](CO)O[C@@H]1Cc1cn(C2CCC2(F)F)nn1 (stereo partly drawn) [Example 4.1.63.AB, (2R,3R,4S,5R,6R)-4-(4-(4-bromo-2,3-difluorophenyl)-1H-1,2,3-triazol-1-yl)-6-((1-(2,2-difluorocyclobutyl)-1H-1,2,3-triazol-4-yl)methyl)-2-(hydroxymethyl)-5-methoxytetrahydro-2H-pyran-3-ol] | 3190 | 70
CO[C@@H]1[C@@H](n2cc(-c3ccc(C)c(F)c3F)nn2)[C@@H](O)[C@@H](CO)O[C@@H]1Cc1cn(C23CCC(N)(CC2)CC3)nn1 [Ex 1.2.39.] | 11000 | 60
CO[C@@H]1[C@@H](n2cc(-c3ccc(Br)c(F)c3F)nn2)[C@@H](O)[C@@H](CO)O[C@@H]1Cc1cn(C2(CCO)COC2)nn1 [Ex 4.1.22.] | 1140 | 70
CO[C@@H]1[C@@H](n2cc(-c3ccc(Cl)c(F)c3F)nn2)[C@@H](O)[C@@H](CO)O[C@@H]1Cc1cn([C@@H]2COC[C@H]2F)nn1 (single isomer, unassigned) [Example 2.1.74.C, (2R,3R,4S,5R,6R)-4-(4-(4-chloro-2,3-difluorophenyl)-1H-1,2,3-triazol-1-yl)-6-((1-((3R*,4S*)-4-fluorotetrahydrofuran-3-yl)-1H-1,2,3-triazol-4-yl)methyl)-2-(hydroxymethyl)-5-methoxytetrahydro-2H-pyran-3-ol] | 3940 | 60
CO[C@@H]1[C@@H](n2cc(-c3ccc(Cl)c(F)c3F)nn2)[C@@H](O)[C@@H](CO)O[C@@H]1Cc1cn(C(C)(C)CF)nn1 [Ex 2.1.45.] | 1490 | 40
CO[C@@H]1[C@@H](n2cc(-c3ccc(Br)c(F)c3F)nn2)[C@@H](O)[C@@H](CO)O[C@@H]1Cc1cn(C23CC(F)(C2)C3)nn1 [Ex 4.1.25., (2R,3R,4S,5R,6R)-4-(4-(4-bromo-2,3-difluorophenyl)-1H-1,2,3-triazol-1-yl)-6-((1-(3-fluorobicyclo[1.1.1]pentan-1-yl)-1H-1,2,3-triazol-4-yl)methyl)-2-(hydroxymethyl)-5-methoxytetrahydro-2H-pyran-3-ol] | 3220 | 50
CO[C@@H]1[C@@H](n2cc(-c3ccc(C)c(F)c3F)nn2)[C@@H](O)[C@@H](CO)O[C@@H]1Cc1cn(C2(C)CC2)nn1 [Ex 1.1.23.] | 1060 | 20
CO[C@@H]1[C@@H](n2cc(-c3ccc(Br)c(F)c3F)nn2)[C@@H](O)[C@@H](CO)O[C@@H]1Cc1cn(C23CC(C)(C2)C3)nn1 [Ex 4.1.14., (2R,3R,4S,5R,6R)-4-(4-(4-bromo-2,3-difluorophenyl)-1H-1,2,3-triazol-1-yl)-2-(hydroxymethyl)-5-methoxy-6-((1-(3-methylbicyclo[1.1.1]pentan-1-yl)-1H-1,2,3-triazol-4-yl)methyl)tetrahydro-2H-pyran-3-ol] | 1360 | 60
CO[C@@H]1[C@@H](n2cc(-c3ccc(F)c(F)c3F)nn2)[C@@H](O)[C@@H](CO)O[C@@H]1Cn1cc(C2(C)CCC2)nn1 [Ex 3.2.13.] | 670 | 80
CO[C@@H]1[C@@H](n2cc(-c3ccc(Cl)c(F)c3F)nn2)[C@@H](O)[C@@H](CO)O[C@@H]1Cc1cn(C2(C(F)F)COC2)nn1 [Ex 2.1.53., (2R,3R,4S,5R,6R)-4-(4-(4-chloro-2,3-difluorophenyl)-1H-1,2,3-triazol-1-yl)-6-((1-(3-(difluoromethyl)oxetan-3-yl)-1H-1,2,3-triazol-4-yl)methyl)-2-(hydroxymethyl)-5-methoxytetrahydro-2H-pyran-3-ol [1-(1,2,3-tri-deoxy-2-methoxy-3-[4-(4-chloro-2,3-difluorophenyl)-1H-1,2,3-triazol-1-yl]-α-D-galacto-pyranose)-1-(1-(3-difluoromethyl-3-oxetanyl)-1H-triazol-4-yl)-methane]] | 420 | 20
CO[C@@H]1[C@@H](n2cc(-c3ccc(Cl)c(F)c3F)nn2)[C@@H](O)[C@@H](CO)O[C@@H]1Cc1cn(C2(C(F)(F)F)COC2)nn1 [Ex 2.1.58., (2R,3R,4S,5R,6R)-4-(4-(4-chloro-2,3-difluorophenyl)-1H-1,2,3-triazol-1-yl)-2-(hydroxymethyl)-5-methoxy-6-((1-(3-(trifluoromethyl)oxetan-3-yl)-1H-1,2,3-triazol-4-yl)methyl)tetrahydro-2H-pyran-3-ol [1-(1,2,3-tri-deoxy-2-methoxy-3-[4-(4-chloro-2,3-difluorophenyl)-1H-1,2,3-triazol-1-yl]-α-D-galacto-pyranose)-1-(1-(3-trifluoromethyl-3-oxetanyl)-1H-triazol-4-yl)-methane]] | 470 | 20
CO[C@@H]1[C@@H](n2cc(-c3ccc(Cl)c(F)c3F)nn2)[C@@H](O)[C@@H](CO)O[C@@H]1Cc1cn(C2(C(F)(F)F)CCC(F)(F)CC2)nn1 [Ex 2.1.71., (2R,3R,4S,5R,6R)-4-(4-(4-chloro-2,3-difluorophenyl)-1H-1,2,3-triazol-1-yl)-6-((1-(4,4-difluoro-1-(trifluoromethyl)cyclohexyl)-1H-1,2,3-triazol-4-yl)methyl)-2-(hydroxymethyl)-5-methoxytetrahydro-2H-pyran-3-ol] | 670 | 50

Other lines, results leading:

IC50 (human Gal-1 (hGal-1)) [nM] | IC50 (human Gal-3 (hGal-3)) [nM] | SMILES
1410 | 30 | CO[C@@H]1[C@@H](n2cc(-c3ccc(C)c(F)c3F)nn2)[C@@H](O)[C@@H](CO)O[C@@H]1Cc1cn([C@]2(C)C[C@@H](O)C2)nn1 [Ex 1.1.27.]
950 | 20 | CO[C@@H]1[C@@H](n2cc(-c3ccc(Cl)c(F)c3F)nn2)[C@@H](O)[C@@H](CO)O[C@@H]1Cc1cn([C@@H]2CCOC[C@H]2F)nn1 [Example 2.1.66.C, (2R,3R,4S,5R,6R)-4-(4-(4-chloro-2,3-difluorophenyl)-1H-1,2,3-triazol-1-yl)-6-((1-((3S,4R)-3-fluorotetrahydro-2H-pyran-4-yl)-1H-1,2,3-triazol-4-yl)methyl)-2-(hydroxymethyl)-5-methoxytetrahydro-2H-pyran-3-ol]
3400 | 50 | CO[C@@H]1[C@@H](n2cc(-c3ccc(Cl)c(F)c3F)nn2)[C@@H](O)[C@@H](CO)O[C@@H]1Cn1cc(C23CC(C2)C3)nn1 [Ex 2.2.12.]
8800 | 160 | CO[C@@H]1[C@@H](n2cc(-c3ccc(Cl)c(F)c3F)nn2)[C@@H](O)[C@@H](CO)O[C@@H]1Cn1cc(C2CC(F)(F)C2)nn1 [Ex 2.2.83.]
760 | 30 | CO[C@@H]1[C@@H](n2cc(-c3ccc(F)c(F)c3F)nn2)[C@@H](O)[C@@H](CO)O[C@@H]1Cc1cn(C23CC(OC)(C2)C3)nn1 [Ex 3.1.29.]
3050 | 40 | CO[C@@H]1[C@@H](n2cc(-c3ccc(Cl)c(F)c3F)nn2)[C@@H](O)[C@@H](CO)O[C@@H]1Cc1cn(C2(CO)CC2)nn1 [Ex 2.1.4.]
190 | 50 | CO[C@@H]1[C@@H](n2cc(-c3ccc(F)c(F)c3F)nn2)[C@@H](O)[C@@H](CO)O[C@@H]1Cc1cn(C2(C)COC2)nn1 [Ex 3.1.6., (2R,3R,4S,5R,6R)-2-(hydroxymethyl)-5-methoxy-6-((1-(3-methyloxetan-3-yl)-1H-1,2,3-triazol-4-yl)methyl)-4-(4-(2,3,4-trifluorophenyl)-1H-1,2,3-triazol-1-yl)tetrahydro-2H-pyran-3-ol]
6700 | 80 | CO[C@@H]1[C@@H](n2cc(-c3ccc(Cl)c(F)c3F)nn2)[C@@H](O)[C@@H](CO)O[C@@H]1Cc1cn(C23CC(C(F)(F)F)(C2)C3)nn1 [Ex 2.1.24.]
970 | 40 | CO[C@@H]1[C@@H](n2cc(-c3ccc(F)c(F)c3F)nn2)[C@@H](O)[C@@H](CO)O[C@@H]1Cn1cc(C23CC(C2)C3)nn1 [Ex 3.2.12.]
1600 | 70 | CCC(C)(CC)n1cc(C[C@H]2O[C@H](CO)[C@H](O)[C@H](n3cc(-c4ccc(Cl)c(F)c4F)nn3)[C@H]2OC)nn1 [Ex 2.1.50.]
2200 | 20 | CO[C@@H]1[C@@H](n2cc(-c3ccc(Br)c(F)c3F)nn2)[C@@H](O)[C@@H](CO)O[C@@H]1Cc1cn(C2(C)CCC2)nn1 [Ex 4.1.13.]
1550 | 40 | CO[C@@H]1[C@@H](n2cc(-c3ccc(F)c(F)c3F)nn2)[C@@H](O)[C@@H](CO)O[C@@H]1Cc1cn(C23CC(F)(C2)C3)nn1 [Ex 3.1.25.]
1630 | 50 | CO[C@@H]1[C@@H](n2cc(-c3ccc(Cl)c(F)c3F)nn2)[C@@H](O)[C@@H](CO)O[C@@H]1Cc1cn(C2(CF)CCC2)nn1 [Ex 2.1.40.]
